Results from US20210386367A1, “DEVICES AND SYSTEMS FOR GASTROINTESTINAL MICROBIOME DETECTION AND MANIPULATION” (Progenity, Inc., priority 2018, published 2021).
In brackets after ≈: the same amount, converted by molar mass. Entries after “also recorded” stand apart in the source; their conditions may differ. Read-outs that look alike come from different tables or passages of the source.

Tests used:
Format in all cases: cell-based
[1] = system: Streptococcus pyogenes clinical isolates; experiment: MIC distribution against clinical isolates; conditions: 19 S. pyogenes isolates
Source text: (§1) As used herein, “minimum inhibitory concentration” or “MIC” refers to the lowest concentration of an antimicrobial agent, for example, an antimicrobial agent as described herein, required to inhibit the growth of an organism. […] “MIC90” represents the MIC value at which ≥90% of the strains within a test population are inhibited; the 90th percentile.
(§2) Many susceptibility testing methods are known in the art and can be used as described herein (see, e.g., Jorgensen and Ferraro (2009) Clinical Infectious Diseases 49:1749-1755; and Maurer et al. (2017) Infectious Disease Reports 9:6839; the entire contents of each of the foregoing are incorporated herein by reference). For example, antimicrobial susceptibility can be determined using conventional culture based methods such as the broth or agar dilution test. In these dilution tests, the bacterial isolate of interest is inoculated onto different media that include serial dilutions of an antimicrobial agent, and incubated under appropriate conditions (e.g., overnight at 37° C.) to allow for growth to occur. Following the incubation period, the media is examined to determine bacterial growth. The lowest concentration of antibiotic that prevents growth represents the minimal inhibitory concentration (MIC). Broth dilution tests can be miniaturized and mechanized allowing for reproducibility and high throughput.

[2] = system: Viridans group Streptococci clinical isolates; experiment: MIC distribution against clinical isolates; conditions: 15 Viridans group Streptococci isolates
Source text: as §1, §2

[3] = system: Viridans group Streptococcus; experiment: Broth microdilution MIC, 15 clinical isolates
Protocol: (§3) Minimal inhibitory concentration (MIC) values were determined by broth microdilution or agar dilution in accordance with guidelines from the Clinical and Laboratory Standards Institute (CLSI; (1) “Methods for Dilution Antimicrobial Susceptibility Tests for Bacteria That Grow Aerobically; Approved Standard; 11th ed.” CLSI standard M07-A11, 2018; (2) “Performance Standards for Antimicrobial Susceptibility Testing; Twenty-Eighth Informational Supplement,” CLSI document M100-S28, 2018; and (3) “Methods for Antimicrobial Susceptibility Testing of Anaerobic Bacteria; Approved Standard—Eighth Edition,” CLSI document M11-A8, 2012).
(§4) Tested aerobically by broth microdilution: • Escherichia coli, n=50 • Klebsiella spp., n=50 • Pseudomonas aeruginosa, n=50 • Streptococcus spp., n=50 • Staphylococcus aureus, n=50 • Enterococcus faecalis, n=50 • Enterobacter aerogenes, n=50 • Proteus mirabilis, n=50
(§5) Broth microdilution testing of aerobic bacteria was conducted in cation-adjusted Mueller Hinton broth (MHBII). For testing streptococci, lysed horse blood (LHB) was added to MHBII broth at a final concentration of 3%. Where LHB was used, it was added after filtering.
(§6) Broth microdilution susceptibility testing in 96-well microplates was conducted in accordance with CLSI methods (1) and (2). Automated liquid handlers were used to conduct serial dilutions and liquid transfers, including the Multidrop 384 (Labsystems, Helsinki, Finland), Biomek 2000, and the Biomek FX (Beckman Coulter, Fullerton, Calif.). All wells in columns 2 through 12 of a standard 96-well microdilution plate (Costar 3795) were filled with 150 μL of the appropriate diluent. Then, 300 μL of the test agents were added to the wells of column 1 of the plates at 100× the highest final concentration to be tested. Serial two-fold dilutions were made across the rows through column 11 using the Biomek 2000. The wells of column 12 contained no drug and served as the growth control wells. This plate served as the “mother plate” from which MIC assay plates or “daughter plates” were made.
(§7) The daughter plates were loaded with 190 μL per well of the appropriate medium using the Multidrop 384. The daughter plates were created using the Biomek FX which transferred 2 μL of drug solution from each well of a mother plate to each corresponding well of the daughter plate in a single step. A standardized inoculum of each test organism was prepared per CLSI methods (1) to equal a 0.5 McFarland standard, followed by a dilution of 1:20 for aerobes and 1:10 for anaerobes. The plates were then inoculated with 10 μL of the diluted inoculum using the Biomek 2000 from low to high drug concentration, resulting in a final concentration of approximately 5×10^5 CFU/mL per well. An un-inoculated plate was incubated in parallel for each medium for the purpose of assessing solubility of the drug in the test media.
(§8) Inoculated plates were stacked 3 or 4 high, covered with a sterile lid on the top plate, placed into boxes with CO2 planchets (streptococci) or plastic bags (all other isolates). Plates were incubated at 35° C. for 16-24 hr in ambient air for aerobes or for 42-48 hr in the anaerobic environment of the Bactron II anaerobe chamber (Sheldon Manufacturing Co.; Cornelius, Oreg.). Following incubation, the microplates were removed from the incubator and viewed from the bottom using a plate viewer. The MIC values were read and recorded as the lowest concentration of drug that inhibited visible growth of the organism as per CLSI methods (1) and (2).

[4] = system: Staphylococcus aureus; experiment: Broth microdilution MIC, 50 clinical isolates (28 MRSA)
Protocol: as §3, §4, §5, §6, §7, §8

[5] = system: Streptococcus agalactiae; experiment: Broth microdilution MIC, 20 clinical isolates
Protocol: as §3, §4, §5, §6, §7, §8

[6] = system: Streptococcus spp. clinical isolates; experiment: MIC distribution against clinical isolates; conditions: 54 Streptococcus spp. isolates
Source text: (n=19 S. pyogenes, n=20 S. agalactiae and n=20 Viridans group Streptococcus) clinical isolates (μg/mL).
as §1, §2

[7] = system: Streptococcus spp.; experiment: Broth microdilution MIC, 54 clinical isolates
Protocol: as §3, §4, §5, §6, §7, §8

[8] = system: Enterococcus faecalis; experiment: Broth microdilution MIC, 50 clinical isolates
Protocol: as §3, §4, §5, §6, §7, §8

[9] = 15 Viridans group Streptococci clinical isolates
[10] = 20 Streptococcus agalactiae clinical isolates
[11] = 54 Streptococcus spp. clinical isolates

SMILES: C[C@@H](O)[C@H]1C(=O)N2C(C(=O)O)=C(S[C@@H]3CN[C@H](C(=O)N(C)C)C3)[C@H](C)[C@H]12 [meropenem]
- Cumulative percentage of isolates inhibited at MIC ([1]; MIC 0.004 μg/mL): 78.9%
- Number of test isolates at MIC ([1]; MIC 0.004 μg/mL): 14
- Cumulative percentage of isolates inhibited at MIC ([1]; MIC 0.008 μg/mL): 94.7%
- Number of test isolates at MIC ([1]; MIC 0.008 μg/mL): 3
- Cumulative percentage of isolates inhibited at MIC ([1]; MIC 0.03 μg/mL): 100.0%
- Number of test isolates at MIC ([1]; MIC 0.03 μg/mL): 1
- Cumulative percentage of isolates inhibited at MIC ([1]; MIC ≤0.002 μg/mL): 5.3%
- Number of test isolates at MIC ([1]; MIC ≤0.002 μg/mL): 1
- Cumulative percentage of isolates inhibited at MIC ([2]; MIC 0.004 μg/mL): 6.7%
- Number of test isolates at MIC ([2]; MIC 0.004 μg/mL): 1
- Cumulative percentage of isolates inhibited at MIC ([2]; MIC 0.008 μg/mL): 26.7%
- Number of test isolates at MIC ([2]; MIC 0.008 μg/mL): 3
- Cumulative percentage of isolates inhibited at MIC ([2]; MIC 0.015 μg/mL): 60.0%
- Number of test isolates at MIC ([2]; MIC 0.015 μg/mL): 5
- Cumulative percentage of isolates inhibited at MIC ([2]; MIC 0.03 μg/mL): 80.0%
- Number of test isolates at MIC ([2]; MIC 0.03 μg/mL): 3
- Cumulative percentage of isolates inhibited at MIC ([2]; MIC 0.5 μg/mL): 100.0%
- Number of test isolates at MIC ([2]; MIC 0.5 μg/mL): 2
- Cumulative percentage of isolates inhibited at MIC ([2]; MIC […]): 86.7%
- Number of test isolates at MIC ([2]; MIC […]): 1
- MIC50 [3, 9]: 0.015 µg/mL (≈ 0.0391 µM)
- MIC90 [3, 9]: 0.5 µg/mL (≈ 1.3 µM)
- MIC range [3, 9]: 0.004 to 0.5 µg/mL
- % S ([3]; 15 Viridans group Streptococci clinical isolates, MXF by FDA breakpoints): 100%
- MIC50 ([3]; Streptococcus, read-out: MIC50): 0.015 µg/mL (≈ 0.0391 µM)
- MIC90 ([3]; Streptococcus, read-out: MIC90): 0.5 µg/mL (≈ 1.3 µM)
- Mode ([3]; modal MIC, 15 Viridans group Streptococci clinical isolates): 0.015 µg/mL
- Mode [4]: 0.12 µg/mL
- MIC50 ([4]; Staphylococcus aureus, read-out: MIC50): 1 µg/mL (≈ 2.61 µM)
- MIC90 ([4]; Staphylococcus aureus, read-out: MIC90): 8 µg/mL (≈ 20.9 µM)
- MIC50 [5, 10]: 0.03 µg/mL (≈ 0.0782 µM)
- MIC90 [5, 10]: 0.03 µg/mL (≈ 0.0782 µM)
- MIC range [5, 10]: 0.015 to 0.06 µg/mL
- % S ([5]; 20 Streptococcus agalactiae clinical isolates, MXF by FDA breakpoints): 100%
- MIC50 ([5]; Streptococcus agalactiae, read-out: MIC50): 0.03 µg/mL (≈ 0.0782 µM)
- MIC90 ([5]; Streptococcus agalactiae, read-out: MIC90): 0.03 µg/mL (≈ 0.0782 µM)
- Mode ([5]; modal MIC, 20 Streptococcus agalactiae clinical isolates): 0.03 µg/mL
- Cumulative percentage of isolates inhibited at MIC ([6]; MIC 0.004 μg/mL): 29.6%
- Number of test isolates at MIC ([6]; MIC 0.004 μg/mL): 15
- Cumulative percentage of isolates inhibited at MIC ([6]; MIC 0.008 μg/mL): 40.7%
- Number of test isolates at MIC ([6]; MIC 0.008 μg/mL): 6
- Cumulative percentage of isolates inhibited at MIC ([6]; MIC 0.015 μg/mL): 57.4%
- Number of test isolates at MIC ([6]; MIC 0.015 μg/mL): 9
- Cumulative percentage of isolates inhibited at MIC ([6]; MIC 0.03 μg/mL): 92.6%
- Number of test isolates at MIC ([6]; MIC 0.03 μg/mL): 19
- Cumulative percentage of isolates inhibited at MIC ([6]; MIC 0.06 μg/mL): 94.4%
- Number of test isolates at MIC ([6]; MIC 0.06 μg/mL): 1
- Cumulative percentage of isolates inhibited at MIC ([6]; MIC 0.5 μg/mL): 100.0%
- Number of test isolates at MIC ([6]; MIC 0.5 μg/mL): 2
- Cumulative percentage of isolates inhibited at MIC ([6]; MIC […]): 96.3%
- Number of test isolates at MIC ([6]; MIC […]): 1
- Cumulative percentage of isolates inhibited at MIC ([6]; MIC ≤0.002 μg/mL): 1.9%
- Number of test isolates at MIC ([6]; MIC ≤0.002 μg/mL): 1
- isolates susceptible [7]: All
- relative activity among drugs tested [7]: most active drug evaluated; also recorded: most active agent
- MIC50 [7, 11]: 0.015 µg/mL (≈ 0.0391 µM)
- MIC90 [7, 11]: 0.03 µg/mL (≈ 0.0782 µM)
- MIC range [7, 11]: ≤0.002 to 0.5 µg/mL
- % S ([7]; 54 Streptococcus spp. clinical isolates, MXF by FDA breakpoints): 100%
- MIC50 ([7]; Streptococcus, read-out: MIC50): 0.015 µg/mL (≈ 0.0391 µM)
- MIC90 ([7]; Streptococcus, read-out: MIC90): 0.03 µg/mL (≈ 0.0782 µM)
- Mode ([7]; modal MIC, 54 Streptococcus spp. clinical isolates): 0.03 µg/mL
- Mode [8]: 4 µg/mL
- MIC50 ([8]; Enterococcus faecalis, read-out: MIC50): 4 µg/mL (≈ 10.4 µM)
- MIC90 ([8]; Enterococcus faecalis, read-out: MIC90): 8 µg/mL (≈ 20.9 µM)
